Measurements taken from patent US6630326B2, “Cancer diagnosis and therapy based on mutations in TGF-β receptors” (Case Western Reserve University, priority 1995, dated 2003).
“Also recorded” adds a separate entry of the source.

Key:
[1] = tested on: RII protein expression in MCF-7, ZR-75, and T-47D; assay: 125I-TGFβ cross-link assay for cell surface RII protein after 5-Azacytidine treatment; type: cell-based, human; conditions: MCF-7, ZR-75, T-47D; 2.5-5.0 μM 5-Azacytidine; after 8 days
Excerpt: A preferred method of detecting the presence of functional RII is by TGFβ binding assay in which labelled TGFβ binds to RII followed by cross-linking and measurement of the amount of label linked to RII protein. Details of this assay have been published in Sun, et al., incorporated herein by reference. Briefly, cell surface receptors may be detected by cross-linking in situ to ^125I labelled TGFβ followed by separation on SDS-PAGE and visualization by autoradiography as described in Example 3 below.
To assay for expression of cell surface TGFβ receptors, we performed cross-linking experiments with ^125I-labeled TGFβ. Cell surface TGFβ receptors were labeled by cross-linking to ^125I-labeled human TGFβ1 as described in Sun, L., et al., 1994 (J. Biol. Chem., 269:26449). Labeled receptors were resolved by SDS-polyacrylamide gel electrophoresis and visualized by autoradiography. There was no detectable ^125I-TGFβ binding to any of eight tested RER^+ cell lines with reduced amounts of RII transcript (FIG. 3). The absence of RI surface receptors in these lines (FIG. 3) is consistent with previous reports that RII receptor is required for TGFβ binding to RI (Wrana, J., et al., 1992, Cell, 71:1003; Sun, L., et al., 1994, J. Biol. Chem., 269:26449). […]

[2] = tested on: RII expression in MCF-7, ZR-75, and T-47D; assay: RNase protection assay for RII transcript after 5-Azacytidine treatment; type: cell-based, human; conditions: ER+ breast cancer cell lines MCF-7, ZR-75, T-47D; 2.5-5.0 μM 5-Azacytidine; after 8 days
Excerpt: A preferred method for detecting loss of mRNA is based on RNase protection. Details of this assay have been published in Sun, et al. Briefly the RNase protection assay measures the amount of RII mRNA in a sample by measuring the amount of RNA which binds to a radioactive antisense RII RNA probe. The radioactive antisense RII RNA probe is produced in a test tube, for example from a plasmid which carries 264 bp for RII cDNA (NarI-PstI) cloned downstream of a T3 RNA polymerase site from which the RNA can be transcribed. Usually, a control human probe such as γ-actin RNA is also prepared from a similar plasmid. The probes are hybridized overnight at room temperature in a guanidine buffer with RNA extracted from tumor cells. The next morning probe RNA which is not protected by binding to authentic RII transcript is destroyed by digestion with RNase A+T1. Protected probe RNA is separated from the reaction by electrophoresis on a urea-acrylamide gel and visualized by autoradiography.
Expression of RI and RII transcripts was examined in 38 human colon tumor cell lines using a ribonuclease (RNase) protection assay as described above (see also Sun, et al., 1994). Total RNA (40 μg) from each sample was hybridized overnight in a single reaction to probes for RI, RII and human γ-actin. […]

[3] = tested on: colon cells with intact TGFβ receptors; assay: TGFβ-induced cell death in colon cells; type: cell-based; conditions: colon cells with intact TGFβ receptors exposed to TGFβ
Excerpt: Thus, therapeutic effects of restoring an active RII in colon cancer cells will include restoring normal cell death pathways. RII gene therapy is thus useful in combination with and to sensitize cells to conventional cytotoxic radiation or chemotherapy.

Compound	RII protein expression (125I-TGFβ cross-link) [1]	RII expression (RNase protection assay) [2]	induction of cell death (apoptosis) [3]
Nc1ncn([C@@H]2O[C@H](CO)[C@@H](O)[C@H]2O)c(=O)n1 [5-Azacytidine]	RII protein expression was confirmed	restored RII expression; also recorded: RII expression by the treated cells was demonstrated	
TGFβ: transforming growth factor beta, natural inhibitor of growth of human epithelial cells			induce cell death
